Experiments:
[1] = tested on: succinoxidase system of beef heart mitochondria; experiment: CoQ activity: restoring succinoxidase activity of pentane-extracted beef heart mitochondria (manometric); format: biochemical; design: key to CoQ10 Act. Index: activity index relative to CoQ10 standard; details: for Activation at 400 nMoles %: 400 nmoles of analog, relative to the response to 400 nmoles CoQ10; for Maximum Activation: 400 nm of analog per flask, percent of the response to CoQ4; for CoQ10 Act. Index: calculated from relative effectiveness, activity in terms of that of CoQ10; for Estimated nMoles Required for 50% Activation: level required to reinstate approximately 50% of maximum succinoxidase activity, 0.65-0.85 mg PEBHM; for Relative Effectiveness: molar amounts of analog and CoQ4 required to restore the same level of succinoxidase to PEBHM, relative to CoQ4; for effectiveness / utilization in the succinoxidase mitochondrial system / ability to elicit maximum activation of succinoxidase: interpretation of Table II
Experimental: The CoQ activity of each analog was assessed by examining the ability of the analog to stimulate the succinoxidase activity of beef-heart mitochondria (BHM) from which the naturally occurring CoQ had been removed by pentane extraction. (Table I) Beef heart mitochondria were prepared by the method of Smith (Methods Enzymol., 10, 81 (1967). The pentane extraction was conducted as described by Szarkowska (Arch. Biochem. Biophys., 113, 519 (1966); PEBHM was frozen and used within 10 days of preparation, since pentane extraction decreases the stability of BHM. Succinoxidase activity was determined manometercally, using a Gilson differential respirometer (Iwamoto, Y., Hansen, I. L., Porter, T. H., and Folkers, K., Biochem. Biophys. Res. Comm., 58, 633 (1974), and is reported as […] of oxygen per minute per milligram of protein. A commercial soybean phospholipid preparation (Asolectin), dispersed by sonication (Fleischer, S. and Fleischer, B., Methods Enzymol., 10, 421 (1967), was used to provide phospholipid micelles, and test substances were added as solutions in ethanol. Within Table I are listed the CoQ activities of the analogs and selected reference compounds. The CoQ10 Activity Index is a measure of the effectiveness of the analogs, relative to the standard, in stimulating a submaximal response of succinoxidase activity. Specific activity of the succinoxidase system in response to stimulation by exogenous CoQ10 is given in footnote a of the Table. The quantity of analog to be added was chosen to provide a level of succinoxidase activity corresponding to the nearly linear portion of the activity: dose curve, in which succinoxidase activity stimulated is approximately proportional to the level of analog used. The second column lists the nanomolar quantity of analog required to provide a stimulation of about half of the maximum response. The relative response of the succinoxidase system to 400 nmol of each analog is listed in the third column of the Table. This level of analog is sufficient to insure significant excess over the stoichiometric amount, and maximum response to CoQ4 is obtained at one-tenth to one-twentieth of this dose level. The response to 400 nmol of CoQ10 is lower than is the response to other components listed. The very long side-chain of CoQ10, the natural coenzyme, may hinder the transport of exogenous CoQ10 to the active site.

[2] = tested on: oxidative phosphorylation at site I (ETPH particles); experiment: Assay of CoQ and analogs for oxidative phosphorylation at site I with ETPH particles; format: biochemical; design: Δ NADH / Δ G6P: unit not given here; details: for P/NADH Ratio / Δ G6P / Δ NADH / μmoles NADH /min/mg / μmoles NADH min/mg +Rotenone / % Inhibition by Rotenone: CoQ or analog 0.12 nM (footnote 0.12 mM); for μmoles NADH /min/mg: 200 μg ETPH particles, no rotenone; for μmoles NADH min/mg +Rotenone / % Inhibition by Rotenone: rotenone 2 μM
Experimental: Assays were performed with 200 μg of ETPH particles as described by
Schatz and Racker (J. Biol. Chem., 241, 1429 (1966)). The concentration o
the CoQ compounds was 0.12 mM. Rotenone was added at 2 μM

complex III = complex III (Bos taurus, UniProt P00157+P13272); experiment: Reduction of cytochrome c by reduced CoQ and analogs catalyzed by complex III; format: biochemical; details: for nMoles Cytochrome c Reduced/min / Non-enzymatic Rate of Cytochrome c Reduction: 10 μM reduced CoQ or analog; for nMoles Cytochrome c Reduced/min: 2 μg complex III, 8 μM cytochrome c; for Non-enzymatic Rate of Cytochrome c Reduction: blank without complex III; for % Inhibition by Antimycin A: antimycin A 1 μg/ml
Experimental: Reduction of cytochrome c was measured at 550-540 nm. The reaction mixtur
contained in 1.0 ml: […] KP1, pH 7.5; 0.05 mM EDTA; 8 μM
cytochrome c1; 10 μM reduced CoQ or analog and 2 μg complex
III. When indicated, antimycin A was added to the assay medium at 1
μg/ml. An extinction coefficient of 19 mM^-^1 was used for […]

Chemical stability = format: physicochemical; details: compared with CoQ1 and CoQ2
[3] = literature / general knowledge; cited from earlier work

| Activation at 400 nMoles % [1] | Maximum Activation [1] | CoQ10 Act. Index [1] | Estimated nMoles Required for 50% Activation [1] | Relative Effectiveness [1] | SMILES | other results |
| --- | --- | --- | --- | --- | --- | --- |
| 115% | 90% | 1.7 | 24.4 nmol | 8.2% | COC1=C(OC)C(=O)C(C/C=C(\C)CC/C=C(\C)CC/C=C(\C)CC/C=C(\C)CC/C=C(\C)CC/C=C(\C)CCC=C(C)C)=C(C)C1=O [CoQ7, reference compound] | – |
| 110% | 86% | 1.2 | 35.1 nmol | 5.7% | CCCCCC1=C(C)C(=O)C(OC)=C(OC)C1=O [Pentyl, 2,3-Dimethoxy-5-methyl-6-pentyl-1,4-benzoquinone] | P/NADH Ratio [2]: 0.44; Δ G6P [2]: 0.036; Δ NADH [2]: 0.082; μmoles NADH /min/mg [2]: 0.47 μmoles NADH /min/mg; μmoles NADH min/mg +Rotenone [2]: 0.02 μmoles NADH min/mg; biochemical effectiveness in the site I assay system ([2]; compared with CoQ1): as biochemically effective as CoQ1; % Inhibition by Rotenone [2]: 95%; nMoles Cytochrome c Reduced/min (complex III): 14.6 nmol/min; Non-enzymatic Rate of Cytochrome c Reduction (complex III): 0.2 nmol/min; response of complex III system to the reduced analog as substrate (complex III; after reduction and extraction): excellent substrates; % Inhibition by Antimycin A (complex III): 100%; chemical stability (Chemical stability; listed as 6-n-pentyl): superior to CoQ1 and CoQ2 in chemical stability; chemical stability (Chemical stability; listed as PB): apparent greater stability; effectiveness / utilization in the succinoxidase mitochondrial system [1]: about as little effective as coenzyme Q10 itself |
| 123% | 96% | 12.5 | 3.3 nmol | 60% | CCC=CCC=CCC=CCCCCCCCC1=C(C)C(=O)C(OC)=C(OC)C1=O [8', 11', 14'-Heptadecatrienyl, 2,3 -Dimethoxy-5-methyl-6-(8',11',14'-heptadecatrienyl)-1,4-benzoquinone] | – |
| – | – | – | – | – | COC1=C(OC)C(=O)C(C/C=C(\C)CCC=C(C)C)=C(C)C1=O [Q2, reference compound] | P/NADH Ratio [2]: 0.57; Δ G6P [2]: 0.045; Δ NADH [2]: 0.079; μmoles NADH /min/mg [2]: 0.25 μmoles NADH /min/mg; μmoles NADH min/mg +Rotenone [2]: 0.02 μmoles NADH min/mg; % Inhibition by Rotenone [2]: 92%; nMoles Cytochrome c Reduced/min (complex III): 27.4 nmol/min; Non-enzymatic Rate of Cytochrome c Reduction (complex III): 0.2 nmol/min; % Inhibition by Antimycin A (complex III): 98%; chemical stability of isoprenoid quinones [3]: relative chemical instability |
| 122% | 95% | 9.0 | 4.7 nmol | 43% | CCCCCC=CCC=CCCCCCCCC1=C(C)C(=O)C(OC)=C(OC)C1=O [8', 11'-Heptadecadienyl, 2,3-Dimethoxy-5-methyl-6-(8',11'-heptadecadienyl)-1,4-benzoquinone] | – |
| 118% | 92% | 7.7 | 5.4 nmol | 37% | CCCCCC=CCC=CCC=CCC=CCCCC1=C(C)C(=O)C(OC)=C(OC)C1=O [4', 7', 10', 13'-Nonadecatetraenyl, 2,3-Dimethoxy-5-methyl-6-(4',7',10',13'-nonadecatetraenyl)-1,4-benzoquinone] | – |
| 79% | 62% | 0.9 | 44.4 nmol | 4.5% | CCCCCCCCCCCCCCCCCCCCC1=C(C)C(=O)C(OC)=C(OC)C1=O [Eicosyl, 2,3-Dimethoxy-5-methyl-6-n-eicosyl-1,4-benzoquinone] | ability to elicit maximum activation of succinoxidase [1]: cannot stimulate maximum activation |
| – | – | – | – | – | CC(C)=CCC/C(C)=C/CC/C(C)=C/CC1=CC(=O)C(C)=C(C)C1=O [plastoquinone-3] | chemical stability of isoprenoid quinones [3]: extremely unstable |
| 123% | 96% | 5.8 | 7.1 nmol | 28% | CCCCCCCCC=CCCCCCCCCCC1=C(C)C(=O)C(OC)=C(OC)C1=O [10'-Nonadecenyl, 2,3-Dimethoxy-5-methyl-6-(10'-nonadecenyl)-1,4-benzoquinone] | – |
| 128% | 100% | 20.8 | 2.0 nmol | 100% | COC1=C(OC)C(=O)C(C/C=C(\C)CC/C=C(\C)CC/C=C(\C)CCC=C(C)C)=C(C)C1=O [CoQ4, reference compound] | amount giving full restoration of activity of succinoxidase in PEBHM [1]: more than 20 nmoles; maximum activity of succinoxidase in PEBHM ([1]; full restoration, more than 20 nmoles of CoQ4): 0.700 μatm O2 /mg protein min; ability to elicit maximum activation of succinoxidase [1]: can elicit maximum activation; effectiveness / utilization in the succinoxidase mitochondrial system [1]: effectively utilized |
| – | – | – | – | – | COC1=C(OC)C(=O)C(CC=C(C)C)=C(C)C1=O [Q1, reference compound] | P/NADH Ratio [2]: 0.522; Δ G6P [2]: 0.046; Δ NADH [2]: 0.088; μmoles NADH /min/mg [2]: 0.45 μmoles NADH /min/mg; μmoles NADH min/mg +Rotenone [2]: 0.03 μmoles NADH min/mg; % Inhibition by Rotenone [2]: 93%; nMoles Cytochrome c Reduced/min (complex III): 12.4 nmol/min; Non-enzymatic Rate of Cytochrome c Reduction (complex III): 0.6 nmol/min; % Inhibition by Antimycin A (complex III): 100%; chemical stability of isoprenoid quinones [3]: relative chemical instability |
| 121% | 94% | 5.8 | 7.1 nmol | 28% | CCCCCCCCC=CCCCCCCCC1=C(C)C(=O)C(OC)=C(OC)C1=O [8'-Heptadecenyl, 2,3-Dimethoxy-5-methyl-6-(8'-heptadecenyl)-1,4-benzoquinone] | – |
| 123% | 96% | 7.3 | 5.7 nmol | 35% | CCCCCC=CCC=CCCCCCCCCCC1=C(C)C(=O)C(OC)=C(OC)C1=O [10', 13'-Nonadecadienyl] | – |
| 119% | 93% | 11.1 | 3.4 nmol | 58% | CCCCCCC=CCCCCCCCC1=C(C)C(=O)C(OC)=C(OC)C1=O [8'-Pentadecenyl] | – |
| 128% | 100% | 10.2 | 4.1 nmol | 49% | CCC=CCC=CCC=CCCCCCCCCCC1=C(C)C(=O)C(OC)=C(OC)C1=O [10', 13', 16'-Nonadecatrienyl, 2,3-Dimethoxy-5-methyl-6-(10',13' ,16'-nonadecatrienyl)-1,4-benzoquinone] | – |

Source: US3974187A, “Synthetic analogs having the activity of naturally occurring forms of coenzyme Q” (priority 1975, dated 1976)
